Laboratory results from ChEMBL document CHEMBL1201862, “PubChem BioAssay data set” (2004).
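Values below derive from 48-hour exposures of cells grown in 96-well plates, with endpoints linearly interpolated between the two concentrations bracketing the appropriate inhibition level. GI50 = concentration required for 50% inhibition of growth.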 Active and inactive are the calls of the source. No stated cut-off is given here; in the data, active = GI50 up to about 1.1 µM and inactive = higher.

Legend:
Test in all cases: inhibition of tumour cell growth, NCI panel, 48 h
UACC-62 = test system: UACC-62
A549 = test system: A549
NCI-H522 = test system: NCI-H522
786-0 = test system: 786-0
KM12 = test system: KM12
HOP-62 = test system: HOP-62
SF-539 = test system: SF-539
IGROV-1 = test system: IGROV-1
CAKI-1 = test system: CAKI-1
UACC-257 = test system: UACC-257
PC-3 = test system: PC-3
MDA-MB-435 = test system: MDA-MB-435
U-251 = test system: U-251
SF-295 = test system: SF-295
DU-145 = test system: DU-145
SN12C = test system: SN12C
LOX IMVI = test system: LOX IMVI
HL-60 = test system: HL-60
HOP-92 = test system: HOP-92
SW-620 = test system: SW-620

| Compound | GI50 (UACC-62) | GI50 (A549) | GI50 (NCI-H522) | GI50 (786-0) | GI50 (KM12) | GI50 (HOP-62) | GI50 (SF-539) | GI50 (IGROV-1) | GI50 (CAKI-1) | GI50 (UACC-257) | GI50 (PC-3) | GI50 (MDA-MB-435) | GI50 (U-251) | GI50 (SF-295) | GI50 (DU-145) | GI50 (SN12C) | GI50 (LOX IMVI) | GI50 (HL-60) | GI50 (HOP-92) | GI50 (SW-620) |
| --- | --- | --- | --- | --- | --- | --- | --- | --- | --- | --- | --- | --- | --- | --- | --- | --- | --- | --- | --- | --- |
| O=C([C@H](O)[C@@H](O)c1ccc(Br)cc1)C12CC3CC(CC(C3)C1)C2 | 7.82 µM (inactive) | 9.38 µM (inactive) | 10.8 µM (inactive) | 9.53 µM (inactive) | 13.8 µM (inactive) | 7.6 µM (inactive) | 8.91 µM (inactive) | 4.48 µM (inactive) | 14.9 µM (inactive) | 9.59 µM (inactive) | 6.58 µM (inactive) | 11.6 µM (inactive) | 7.18 µM (inactive) | 13 µM (inactive) | 9.68 µM (inactive) | 17.9 µM (inactive) | 31.1 µM (inactive) | – | – | – |
| ClCCN1CCC2(CC1)SSC1(CCN(CCCl)CC1)S2 | 20.8 µM (inactive) | 89.9 µM (inactive) | – | 36.7 µM (inactive) | > 100 µM (inactive) | > 100 µM (inactive) | 20.6 µM (inactive) | 74 µM (inactive) | 11.9 µM (inactive) | > 100 µM (inactive) | 30.1 µM (inactive) | 73.6 µM (inactive) | 42.1 µM (inactive) | 29.4 µM (inactive) | 37.2 µM (inactive) | 26.2 µM (inactive) | 31.8 µM (inactive) | 30.7 µM (inactive) | 1.79 µM (inactive) | 76.6 µM (inactive) |
| CC1(C)C(C#N)=[N+]([O-])C(C)(C)N1O | > 100 µM (inactive) | > 100 µM (inactive) | – | > 100 µM (inactive) | > 100 µM (inactive) | > 100 µM (inactive) | > 100 µM (inactive) | > 100 µM (inactive) | > 100 µM (inactive) | > 100 µM (inactive) | > 100 µM (inactive) | 37.7 µM (inactive) | > 100 µM (inactive) | > 100 µM (inactive) | > 100 µM (inactive) | > 100 µM (inactive) | 77.3 µM (inactive) | 26.7 µM (inactive) | > 100 µM (inactive) | 72.3 µM (inactive) |
| O=C1OCC(CN2CCC(n3c(=O)[nH]c4ccccc43)CC2)=C1c1ccccc1 | 12.6 µM (inactive) | 30.1 µM (inactive) | 19.2 µM (inactive) | 33.4 µM (inactive) | 16.3 µM (inactive) | 28.5 µM (inactive) | 18.9 µM (inactive) | 22.2 µM (inactive) | 22.9 µM (inactive) | 23.4 µM (inactive) | 19 µM (inactive) | 25.3 µM (inactive) | 35.5 µM (inactive) | 26.4 µM (inactive) | 24.8 µM (inactive) | 22 µM (inactive) | 21.4 µM (inactive) | 15.5 µM (inactive) | – | 34.9 µM (inactive) |
| CC[C@]12C=CCN3CCC4(c5cc(/N=N/c6ccc([N+](=O)[O-])cc6)c(OC)cc5N(C)[C@H]4[C@@](O)(C(=O)OC)[C@@H]1OC(C)=O)[C@@H]32 (stereo partly specified) | 17.2 µM (inactive) | 15.3 µM (inactive) | – | 11.8 µM (inactive) | 14.3 µM (inactive) | 13.6 µM (inactive) | 16.8 µM (inactive) | 11.9 µM (inactive) | 12.9 µM (inactive) | 14.7 µM (inactive) | 4.26 µM (inactive) | 11.7 µM (inactive) | 11.2 µM (inactive) | 10.6 µM (inactive) | 22.8 µM (inactive) | 23.8 µM (inactive) | 16.3 µM (inactive) | 7.31 µM (inactive) | 2.54 µM (inactive) | 2.56 µM (inactive) |
| CC(=O)N(CCc1ccccc1)C(C#N)c1ccc(OCCCCCCCCCCOc2ccc(C(C#N)N(CCc3ccccc3)C(C)=O)cc2)cc1 (stereo unspecified) | 62.1 µM (inactive) | > 100 µM (inactive) | – | 16.2 µM (inactive) | > 100 µM (inactive) | – | 23.3 µM (inactive) | 31.6 µM (inactive) | 97.3 µM (inactive) | > 100 µM (inactive) | 63.4 µM (inactive) | > 100 µM (inactive) | 21.7 µM (inactive) | 12.4 µM (inactive) | 85.9 µM (inactive) | > 100 µM (inactive) | > 100 µM (inactive) | > 100 µM (inactive) | 15 µM (inactive) | > 100 µM (inactive) |
| COc1ccc(C[C@@H](CO)NC2=C(C#N)CCC2)cc1 | 31.5 µM (inactive) | 86.7 µM (inactive) | – | 64.1 µM (inactive) | 19.5 µM (inactive) | 56.5 µM (inactive) | 26.3 µM (inactive) | – | 43 µM (inactive) | 34.6 µM (inactive) | 32.3 µM (inactive) | 48 µM (inactive) | > 100 µM (inactive) | 29.7 µM (inactive) | 50.6 µM (inactive) | > 100 µM (inactive) | 23.7 µM (inactive) | 11 µM (inactive) | 43.5 µM (inactive) | 49.2 µM (inactive) |
| COc1ccc2c(=O)c3c([nH]c2c1)OCC3=O | > 100 µM (inactive) | – | – | > 100 µM (inactive) | > 100 µM (inactive) | > 100 µM (inactive) | > 100 µM (inactive) | > 100 µM (inactive) | > 100 µM (inactive) | > 100 µM (inactive) | > 100 µM (inactive) | > 100 µM (inactive) | > 100 µM (inactive) | > 100 µM (inactive) | > 100 µM (inactive) | – | > 100 µM (inactive) | > 100 µM (inactive) | > 100 µM (inactive) | > 100 µM (inactive) |
| Nc1ncnc2c1ncn2C1CCC(COS(N)(=O)=O)C1 (stereo unspecified) | > 100 µM (inactive) | > 100 µM (inactive) | – | > 100 µM (inactive) | > 100 µM (inactive) | > 100 µM (inactive) | 27 µM (inactive) | > 100 µM (inactive) | > 100 µM (inactive) | > 100 µM (inactive) | > 100 µM (inactive) | > 100 µM (inactive) | > 100 µM (inactive) | > 100 µM (inactive) | > 100 µM (inactive) | > 100 µM (inactive) | 37 µM (inactive) | 31.1 µM (inactive) | > 100 µM (inactive) | > 100 µM (inactive) |
| C=CCOC(OCC=C)/C(Br)=C/C | 64.4 µM (inactive) | > 100 µM (inactive) | – | 11.2 µM (inactive) | > 100 µM (inactive) | > 100 µM (inactive) | – | – | 16.7 µM (inactive) | > 100 µM (inactive) | 93.1 µM (inactive) | 26.9 µM (inactive) | 59.2 µM (inactive) | > 100 µM (inactive) | 55.2 µM (inactive) | > 100 µM (inactive) | 16.5 µM (inactive) | 41 µM (inactive) | 56.5 µM (inactive) | 37.5 µM (inactive) |
| COc1ccc(/C=C\c2cc(OC)c(OC)c(OC)c2)cc1OC(=O)CCC(=O)O | < 0.0001 µM (active) | 0.000655 µM (active) | < 0.0001 µM (active) | 0.000263 µM (active) | 0.00043 µM (active) | < 0.0001 µM (active) | < 0.01 µM (active) | 0.000145 µM (active) | 0.33 µM (active) | > 10 µM (inactive) | < 0.0001 µM (active) | < 0.0001 µM (active) | < 0.0001 µM (active) | 0.000158 µM (active) | < 0.0001 µM (active) | < 0.0001 µM (active) | < 0.0001 µM (active) | < 0.0001 µM (active) | – | < 0.0001 µM (active) |
